For data set [1], the system named is rats. In words: Histopathological examination of nostrils, nasal cavity and pharynx (local tolerability). The data set is classed as in vivo. As to conditions: dose as high as 12.5 mg/kg in rats, intranasal. From the text: Subsequent to the last blood sampling animals were sacrificed by induction of a deep anesthesia with isoflurane followed by rapid exsanguinations. Then both nostrils and nasal cavity including pharynx were collected from all animals and preserved in neutral buffered formaldehyde (4%) for histopathological examination. Afterwards, tissues for the histopathological investigation were trimmed and embedded in paraplast®. The slides were HE (hematoxylin and eosin)-stained and histopathologically examined.

The subject of data set [2] is SARS-Covid 2 virus. As to conditions: cited Monash lab experiments; cited from earlier work.
A short description of data set [3]: Particle size distribution (PSD) by laser diffraction, Malvern Mastersizer 2000/3000. The data set is classed as physicochemical. On the procedure:
The mean particle size distribution is preferably obtained by laser diffraction. In a laser diffraction measurement, a laser beam passes through a dispersed particulate sample and the angular variation in intensity of the scattered light is measured. Large particles scatter light at small angles relative to the laser beam and small particles scatter light at large angles. The angular scattering intensity data is then analyzed to calculate the size of the particles that created the scattering pattern using the Mie theory of light scattering. The particle size is reported as a volume equivalent sphere diameter. The folded optical design in the Mastersizer 3000 (from Malvern Panalytical), which was in particular used for the measurements, provides a particle size range from 10 nm up to 3.5 mm using a single optical measurement path. The Mastersizer 3000 uses a sequential combination of measurements with red and blue light sources to measure across the entire particle size range.
The pharmaceutically active agent is grinded in a mortar/pestle system to the appropriate particles size prior to its use. Afterwards the Particles Size Distribution (PSD) is measured using a Malvern Master Sizer 3000. The samples after grinding are stored in tightly closed brown glass bottles.
The pharmaceutically active agent is micronised to the desired particles size using a jet mill (e.g. from SpiraNo 100 from MCKO, Germany) and screw dosing system (e.g. ZD 9 from Three-Tec Ltd., Seon, Switzerland). The diameter of the injection nozzle is selected at about 6 mm, the milling gas pressure about 2 bar, the milling temperature is about 18° C. The duration of the process is about 5-10 minutes depending on the particle size of the non-micronised active agent. Afterwards the PSD is measured with a Malvern Master Sizer 3000. The samples after micronisation are stored in tightly closed brown glass bottles.
Afterwards the PSD is measured with a Malvern Master Sizer 3000. In addition, the Zetapotential, an index for the stability of the multiparticulate suspensions is measured using a Zeta Sizer (e.g. Nano ZS) from Malvern Instruments (Dynamic Laser diffraction).
In some embodiments, the PSD of the pharmaceutically active agent, provided for the preparation of its multiparticulate suspension according to procedure 1 and procedure 2 (grinded/micronised), was measured using a Malvern Mastersizer 2000 or 3000 (in water as dispersion medium, stirrer speed 1500 rpm, Mie presentation) to give the following results:
In some embodiments, the PSD of the pharmaceutically active agent in multiparticulate suspension prepared according to procedure 3 (wet ball milling with Delta Vita 1), procedure 4 (wet ball milling Getzmann/Frewitt), procedure 5 (bulk microsuspension) and procedure 6 (final product) was measured using a Malvern Mastersizer 2000 or 3000 (in water as dispersion medium, stirrer speed 1500 rpm, Mie presentation).

As for ivermectin, in data set [1], the “tolerability of the active ingredient” value is “well tolerated”. Further, in data set [2], the “activity against SARS-Covid 2 virus” value is on record as “active”.
As to ivermectin [05KB21.HM00155], in data set [3] (API batch after grinding), the D10 is recorded as 2.02 μm, the D50 was 6.89 μm and the D90 was determined as 32.0 μm.
On to ivermectin [05KB21.HM00170-], for which, in data set [3] (API batch after micronisation), the D10 amounted to 0.97 μm, the D50 is given as 2.22 μm and the D90 is listed as 4.35 μm.

The values above are taken from patent US20250064841A1, “Aqueous Composition Comprising Avermectins” (HWI Pharma Services GmbH, priority 2022, published 2025).
